Reference: patent US20040204481A1, “Activation of natural killer cells by adenosine A3 receptor agonists” (priority 2001, published 2004)
“Also recorded” adds a separate entry of the source.

Key:
B-16 melanoma cells = experiment: Adoptive transfer of splenocytes to melanoma bearing mice, count of lung melanoma foci; assay type: in vivo; details: splenocytes from 6 μg/kg Cl-IB-MECA treated mice engrafted 4 days after B-16 inoculation; day 15; versus non-activated splenocytes or control; FIG. 4
Source text: In another experiment, the capability of the “activated” splenocytes to act in vivo against melanoma cells was examined. The “non-activated” and “activated” splenocytes were engrafted to mice that were inoculated 4 days earlier with B-16 melanoma cells (2.5×10^5). As the control served mice that were inoculated with the B-16 melanoma cells however not engrafted with splenocytes. The mice were sacrificed on day 15 and their lungs were removed. The number of lung melanoma foci was counted, the results for which are depicted in FIG. 4.

NK cells = experiment: NK activity (51Cr assay) of splenocytes from B-16 melanoma bearing mice treated orally; assay type: in vivo, C57B1/6J mice; details: for NK activity of splenocytes versus vehicle control group: 15 days, B-16 melanoma inoculated mice, FIG. 3
Description: In a further study C57B1/6J mice were used as the model mice which will develop metastatic lung foci after 15 days. The C57B1/6J mice were inoculated intravenously with B-16 melanoma cells (2.5×10^5) and treated daily orally with 6 or 9 μg/kg body weight of Cl-IB-MECA (starting one day after tumor inoculation). After 15 days, the mice were sacrificed and spleens were removed.
Splenocytes were separated and tested for NK activity using the ^51Cr assay as described above. […] The splenocytes derived from the group treated with 6 μg/kg body weight of Cl-IB-MECA were designated as “activated” cells and those derived from the control group were designated as “non-activated” splenocytes.

[1] = test system: human peripheral blood NK cells; experiment: 4 h 51Cr-release NK cytotoxicity assay, in vitro preincubation with agonist, K562 leukemia cells as targets; assay type: cell-based; details: for activity of natural killer cells following preincubation: 10 nM Cl-IB-MECA, 18 hours preincubation, K562 targets, E:T ratio 1:50, FIG. 1
Description: Murine splenocytes were derived from spleens of ICR mice and human mononuclear cells were separated by Ficoll-Hypaque gradient from heparinized blood of healthy normal volunteers.
(§1) The effect of Cl-IB-MECA on the activity of human peripheral blood NK cells was assayed by a standard 4 h ^51Cr-release assay using K562 leukemia cells as targets. Splenocytes or human mononuclear cells were cultured at a concentration of 5×10^5 cells/well in 96 well round bottom plates, and used as the effector (E) cells. The cells were preincubated with 10 nM Cl-IB-MECA for 18 hours, then the agonist was washed out from the wells and the cells were re-suspended in RPMI containing 5% FCS. K562 cells were used as the targets (T) and were labeled with 100 μci of Na2[^51Cr]O4 at 37° C., for 1 hr.
(§2) After extensive washing to remove the excess ^51Cr, target cells (1×10^4) were re-suspended in RPMI and mixed with the effector cells at an E:T ratio of 1:50 in a total volume of 200 μl (triplicate assays). After 4 hours of incubation at 37° C. in 5% CO2, plates were centrifuged, and the supernatants were counted in a gamma counter (LKB).
(§3) NK cytotoxicity was calculated using the following equation (CPM: counts per minute): [formula]
(§4) CPM sample, CPM spontaneous and CPM maximal were determined by measuring the CPM of the supernatants of the target cells in the presence of […], the assay medium or in the presence of 1% triton, respectively. It should be noted that spontaneous release was below 10% of the maximal release throughout this experiment.

murine NK cells = experiment: NK activity (51Cr assay) of splenocytes from ICR mice after oral administration; assay type: in vivo; details: FIG. 2; for NK activity of splenocytes derived from treated mice: 6 μg/kg orally for two consecutive days
Description: as §1, §2, §3, §4
ICR mice were orally administered for two consecutive days with 6 μg/kg body weight of Cl-IB-MECA. After 4, 11 and 18 days, mice were sacrificed and spleens were removed. Splenocytes were separated and tested for NK activity using the ^51Cr assay as described above.

Compound | development of lung metastatic foci (B-16 melanoma cells) | NK activity of splenocytes versus vehicle control group (NK cells; 6 μg/kg daily orally) | NK activity of splenocytes versus vehicle control group (NK cells; 9 μg/kg daily orally) | NK cell activity in splenocytes derived from treated melanoma bearing mice (NK cells; FIG. 3 legend, dose not stated there) | activity of natural killer cells following preincubation [1] | activity of natural killer cells following preincubation ([1]; listed as CI-IB-MECA) | NK activity of splenocytes derived from treated mice (murine NK cells; after 4 days) | NK activity of splenocytes derived from treated mice (murine NK cells; after 11 days) | NK activity of splenocytes derived from treated mice (murine NK cells; following 18 days) | time of maximal activation of murine NK cells (murine NK cells; oral administration) | effect of the A3 receptor antagonist on the stimulatory effect of Cl-IB-MECA on NK activity ([1]; MRS-1220 introduced with Cl-IB-MECA, FIG. 1)
CNC(=O)[C@H]1O[C@@H](n2cnc3c(NCc4cccc(I)c4)nc(Cl)nc32)[C@H](O)[C@@H]1O [Cl-IB-MECA, 2-chloro-N^6-(3-iodobenzyl)-adenosine-5′-N-methyl-uronamide] | decreased number of lung foci | marked increase | marked increase | increased NK cell activity | potentiation | significant dose dependent increase | marked increase | high activity was still observed | only slight increase | 4 days | 
O=C(Cc1ccccc1)Nc1nc2ccc(Cl)cc2c2nc(-c3ccco3)nn12 [MRS-1220, 9-chloro-2-(2-furanyl)-5-[(phenylacetyl)amino] [1,2,4,] -triazolo[1,5-c] quinazoline] |  |  |  |  |  |  |  |  |  |  | reversed the stimulatory effect; also recorded: abolished the stimulatory effect
